In ChEMBL document CHEMBL4334526, “Synthesis of Peptoid-Based Class I-Selective Histone Deacetylase Inhibitors with Chemosensitizing Properties” (J Med Chem, 2019):
One block for each molecule: values may come before it. The source made the active and inactive calls. The rule behind the calls is not given here.

Experiments:
[1] = biological target: T1, Class 1 histone deacetylase (Homo sapiens, UniProt Q13547+O15379+Q92769+Q9BY41); assay: Inhibition of class 1 HDAC in human CAL27 cells assessed as potentiation of cisplatin-induced cytotoxicity by measuring cisplatin IC50 at 5 uM preincubated for 48 hrs followed by cisplatin addition and measured after 72 hrs by MTT assay (reference value: 9.79 uM); assay type: cell-based; details: cal-27
[2] = biological target: T1, Class 1 histone deacetylase; assay: Inhibition of class 1 HDAC in human Cal27CisR cells assessed as potentiation of cisplatin-induced cytotoxicity by measuring cisplatin IC50 at 5 uM preincubated for 48 hrs followed by cisplatin addition and measured after 72 hrs by MTT assay (reference value: 63.2 uM); assay type: cell-based
[3] = biological target: T1, Class 1 histone deacetylase; assay: Inhibition of class 1 HDAC in human Cal27CisR cells assessed as potentiation of cisplatin-induced cytotoxicity by measuring fold reduction in cisplatin IC50 at 5 uM preincubated for 48 hrs followed by cisplatin addition and measured after 72 hrs by MTT assay relative to cisplatin IC50; assay type: cell-based
[4] = biological target: T1, Class 1 histone deacetylase; assay: Inhibition of class 1 HDAC in human CAL27 cells assessed as potentiation of cisplatin-induced cytotoxicity by measuring combination index at 5 uM in presence of […] cisplatin by MTT assay based Chou-Talalay analysis; assay type: cell-based; details: CAL-27
[5] = biological target: T1, Class 1 histone deacetylase; assay: Inhibition of class 1 HDAC in human CAL27 cells assessed as potentiation of cisplatin-induced cytotoxicity by measuring combination index at 5 uM in presence of 0.1 uM cisplatin by MTT assay based Chou-Talalay analysis; assay type: cell-based; details: CAL-27
[6] = biological target: T1, Class 1 histone deacetylase; assay: Inhibition of class 1 HDAC in human Cal27CisR cells assessed as potentiation of cisplatin-induced cytotoxicity by measuring combination index at 5 uM in presence of […] cisplatin by MTT assay based Chou-Talalay analysis; assay type: cell-based
[7] = test system: CAL-27; assay: Induction of apoptosis in human CAL27 cells assessed as accumulation at sub-G1 phase at 5 uM after 48 hrs by propidium iodide staining based flow cytometry; assay type: functional, cell-based
[8] = organism: Homo sapiens; assay: Induction of apoptosis in human Cal27CisR cells assessed as accumulation at sub-G1 phase at 5 uM after 48 hrs by propidium iodide staining based flow cytometry; assay type: functional, cell-based
[9] = biological target: T1, Class 1 histone deacetylase; assay: Inhibition of class 1 HDAC in human Cal27CisR cells assessed as potentiation of cisplatin-induced apoptosis by measuring increase in accumulation at sub-G1 phase at 5 uM preincubated for 48 hrs followed by cisplatin addition and measured after 24 hrs by propidium iodide staining based flow cytometry; assay type: cell-based
[10] = biological target: T1, Class 1 histone deacetylase; assay: Inhibition of class 1 HDAC in human CAL27 cells assessed as increase in histone H3 acetylation at 5 uM measured after 24 hrs by immunoblot analysis; assay type: cell-based; details: CAL-27
[11] = biological target: T1, Class 1 histone deacetylase; assay: (§1) Inhibition of class 1 HDAC in human CAL27 cells assessed as potentiation of cisplatin-induced apoptosis assessed as increase in caspase-3/7 activation at 5 uM preincubated for 48 hrs followed by cisplatin addition and measured after 24 hrs by CellEvent caspase 3/7 green detection reagent/Hoechst 33342 staining based imaging analysis; assay type: cell-based; details: CAL-27
[12] = biological target: T1, Class 1 histone deacetylase; assay: as §1, with “24 hrs in presence of pan caspase inhibitor QVD by CellEvent” for “24 hrs by CellEvent”; assay type: cell-based; details: CAL-27
[13] = test system: CAL-27; assay: Induction of apoptosis in human CAL27 cells assessed as accumulation at sub-G1 phase at 0.5 uM after 48 hrs by propidium iodide staining based flow cytometry relative to control; assay type: functional
[14] = test system: CAL-27; assay: Induction of apoptosis in human CAL27 cells assessed as accumulation at sub-G1 phase at 100 uM measured after 48 hrs by propidium iodide staining based flow cytometry relative to control; assay type: functional
[15] = test system: CAL-27; assay: Induction of apoptosis in human CAL27 cells assessed as caspase-3/7 activation at 0.5 uM measured after 48 hrs by CellEvent caspase 3/7 green detection reagent/Hoechst 33342 staining based imaging analysis relative to control; assay type: functional
[16] = Induction of apoptosis in human Cal27CisR cells assessed as caspase-3/7 activation at 0.5 uM measured after 48 hrs by CellEvent caspase 3/7 green detection reagent/Hoechst 33342 staining based imaging analysis relative to control; assay type: functional
[17] = biological target: T1, Class 1 histone deacetylase; details: CAL-27
Description: Inhibition of class 1 HDAC in human CAL27 cells assessed as potentiation of cisplatin-induced cytotoxicity by measuring combination index at 0.25 uM in presence of 1 uM cisplatin by MTT assay based Chou-Talalay analysis

[18] = biological target: T1, Class 1 histone deacetylase; details: CAL-27; remark: listed apart in the source
Description: Inhibition of class 1 HDAC in human CAL27 cells assessed as potentiation of cisplatin-induced cytotoxicity by measuring combination index at 0.1 uM in presence of 0.1 uM cisplatin by MTT assay based Chou-Talalay analysis

[19] = biological target: T1, Class 1 histone deacetylase; details: CAL-27; remark: listed apart in the source
Description: Inhibition of class 1 HDAC in human CAL27 cells assessed as potentiation of cisplatin-induced cytotoxicity by measuring combination index at 0.25 uM in presence of 10 uM cisplatin by MTT assay based Chou-Talalay analysis

[20] = biological target: T1, Class 1 histone deacetylase
Description: Inhibition of class 1 HDAC in human Cal27CisR cells assessed as potentiation of cisplatin-induced cytotoxicity by measuring combination index at 0.10 uM in presence of 10 uM cisplatin by MTT assay based Chou-Talalay analysis

[21] = biological target: T1, Class 1 histone deacetylase; remark: listed apart in the source
Description: Inhibition of class 1 HDAC in human Cal27CisR cells assessed as potentiation of cisplatin-induced cytotoxicity by measuring combination index at 0.10 uM in presence of 100 uM cisplatin by MTT assay based Chou-Talalay analysis

[22] = biological target: T1, Class 1 histone deacetylase; remark: listed apart in the source
Description: Inhibition of class 1 HDAC in human Cal27CisR cells assessed as potentiation of cisplatin-induced cytotoxicity by measuring combination index at 0.25 uM in presence of 1 uM cisplatin by MTT assay based Chou-Talalay analysis

[23] = biological target: T1, Class 1 histone deacetylase; remark: listed apart in the source
Description: Inhibition of class 1 HDAC in human Cal27CisR cells assessed as potentiation of cisplatin-induced cytotoxicity by measuring combination index at 0.25 uM in presence of 10 uM cisplatin by MTT assay based Chou-Talalay analysis

[24] = biological target: T1, Class 1 histone deacetylase; remark: listed apart in the source
[25] = biological target: Histone deacetylase 2 (Homo sapiens, UniProt Q92769); assay: Inhibition of recombinant human full length C-terminal FLAG-tagged HDAC2 expressed in baculovirus infected Sf9 insect cells at 3.33 uM using Boc-Lys(epsilon-acetyl)-AMC as substrate incubated for 90 mins by fluorescence assay relative to control
[26] = biological target: T1, Class 1 histone deacetylase; assay: Inhibition of class 1 HDAC in human Cal27CisR cells assessed as potentiation of cisplatin-induced cytotoxicity by measuring fold reduction in cisplatin IC50 at […] preincubated for 48 hrs followed by cisplatin addition and measured after 72 hrs by MTT assay relative to cisplatin IC50; assay type: cell-based
[27] = test system: CAL-27; assay: Induction of apoptosis in human CAL27 cells assessed as accumulation at sub-G1 phase at […] after 48 hrs by propidium iodide staining based flow cytometry relative to control; assay type: functional
[28] = biological target: T1, Class 1 histone deacetylase; assay: Inhibition of class 1 HDAC in human CAL27 cells assessed as potentiation of cisplatin-induced cytotoxicity by measuring cisplatin IC50 at […] preincubated for 48 hrs followed by cisplatin addition and measured after 72 hrs by MTT assay (reference value: 9.79 uM); assay type: cell-based; details: cal-27
[29] = biological target: T1, Class 1 histone deacetylase; assay: Inhibition of class 1 HDAC in human Cal27CisR cells assessed as potentiation of cisplatin-induced cytotoxicity by measuring cisplatin IC50 at […] preincubated for 48 hrs followed by cisplatin addition and measured after 72 hrs by MTT assay (reference value: 63.2 uM); assay type: cell-based
[30] = biological target: T1, Class 1 histone deacetylase; assay: as §1, with “activation at […] preincubated for” for “activation at 5 uM preincubated for”, “24 hrs in presence of pan caspase inhibitor QVD by CellEvent” for “24 hrs by CellEvent”; assay type: cell-based; details: CAL-27

T1 sequence (O15379 whole entry, looked up): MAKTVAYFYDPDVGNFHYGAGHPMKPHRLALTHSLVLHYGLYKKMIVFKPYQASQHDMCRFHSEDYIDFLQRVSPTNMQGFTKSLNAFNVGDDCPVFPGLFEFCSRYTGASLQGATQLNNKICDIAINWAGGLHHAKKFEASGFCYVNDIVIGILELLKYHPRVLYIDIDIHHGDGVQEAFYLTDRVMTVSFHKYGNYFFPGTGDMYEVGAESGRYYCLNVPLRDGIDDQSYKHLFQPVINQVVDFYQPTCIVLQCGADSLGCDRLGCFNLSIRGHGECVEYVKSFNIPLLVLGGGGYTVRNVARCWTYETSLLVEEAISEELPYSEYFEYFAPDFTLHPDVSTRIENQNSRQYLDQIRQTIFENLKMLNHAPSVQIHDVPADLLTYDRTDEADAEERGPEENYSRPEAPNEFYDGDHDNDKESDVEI
T1 sequence (Q13547 whole entry, looked up): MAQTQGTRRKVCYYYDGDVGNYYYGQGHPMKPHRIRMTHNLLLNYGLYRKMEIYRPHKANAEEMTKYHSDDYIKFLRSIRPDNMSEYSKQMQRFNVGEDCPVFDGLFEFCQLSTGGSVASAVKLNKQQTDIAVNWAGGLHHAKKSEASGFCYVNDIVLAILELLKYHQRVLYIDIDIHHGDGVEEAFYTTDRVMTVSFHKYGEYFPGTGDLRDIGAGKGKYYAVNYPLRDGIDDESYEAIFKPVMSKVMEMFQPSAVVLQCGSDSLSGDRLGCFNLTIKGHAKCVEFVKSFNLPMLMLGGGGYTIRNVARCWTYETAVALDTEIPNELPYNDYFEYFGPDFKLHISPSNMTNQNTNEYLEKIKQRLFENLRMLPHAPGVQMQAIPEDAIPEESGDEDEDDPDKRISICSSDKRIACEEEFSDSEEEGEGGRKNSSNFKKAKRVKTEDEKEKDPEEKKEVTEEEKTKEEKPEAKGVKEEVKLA
T1 sequence (Q92769 whole entry, looked up): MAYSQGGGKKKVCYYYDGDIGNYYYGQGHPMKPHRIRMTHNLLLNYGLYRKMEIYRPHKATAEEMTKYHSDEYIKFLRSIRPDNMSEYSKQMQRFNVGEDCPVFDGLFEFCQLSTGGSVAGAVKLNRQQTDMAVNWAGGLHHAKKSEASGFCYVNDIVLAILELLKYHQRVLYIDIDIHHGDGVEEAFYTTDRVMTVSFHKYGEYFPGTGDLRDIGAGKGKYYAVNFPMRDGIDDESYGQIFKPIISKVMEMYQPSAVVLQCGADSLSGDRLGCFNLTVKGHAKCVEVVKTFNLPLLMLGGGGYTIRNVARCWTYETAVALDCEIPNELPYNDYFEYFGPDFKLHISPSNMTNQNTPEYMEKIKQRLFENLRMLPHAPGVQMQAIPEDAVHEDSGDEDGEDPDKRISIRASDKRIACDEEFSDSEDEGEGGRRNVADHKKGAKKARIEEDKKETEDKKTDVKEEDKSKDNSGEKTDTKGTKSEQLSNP
T1 sequence (Q9BY41 whole entry, looked up): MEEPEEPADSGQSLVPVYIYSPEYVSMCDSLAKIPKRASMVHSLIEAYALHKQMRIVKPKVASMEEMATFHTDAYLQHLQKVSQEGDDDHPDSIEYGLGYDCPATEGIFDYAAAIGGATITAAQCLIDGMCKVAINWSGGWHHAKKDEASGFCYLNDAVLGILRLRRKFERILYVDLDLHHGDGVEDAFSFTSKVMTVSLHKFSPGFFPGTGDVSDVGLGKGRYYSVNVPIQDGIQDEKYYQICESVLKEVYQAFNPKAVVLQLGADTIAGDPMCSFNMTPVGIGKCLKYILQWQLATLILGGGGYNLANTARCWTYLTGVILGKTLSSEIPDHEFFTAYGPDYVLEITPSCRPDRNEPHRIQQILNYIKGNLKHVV
Sequence of Histone deacetylase 2 (Q92769 whole entry): as the sequence (Q92769 whole entry, looked up) above

inhibition [9]: Active | inhibition [10]: Active | inhibition [11]: Active | inhibition [12]: inactive
Compound: Cc1cc(C)cc(C(=O)N(CCCCCC(=O)Nc2cc(-c3ccccc3)ccc2N)CC(=O)NCc2ccccc2)c1
IC50 [1]: 1.86 µM | IC50 [2]: 15.7 µM | Ratio IC50 [3]: 4.03 | CI [4]: < 0.2 | CI [5]: < 0.2 | CI [6]: < 0.2 | Activity [7]: inactive | Activity [8]: inactive

CI [17]: 0.11 | CI [18]: < 0.2 | CI [19]: 0.02 | CI [20]: < 0.2 | CI [21]: 0.07 | CI [22]: 0.76 | CI [23]: 0.23 | CI [24]: 0.04
Compound: CN(C)c1ccc(C(=O)N(CC(=O)NCc2ccccc2)Cc2ccc(C(=O)Nc3ccccc3N)cc2)cc1
Activity [13]: 9.42% | Activity [14]: 31% | Activity [15]: 12% | Activity [16]: 8.16%

Compound: Cc1cc(C)cc(C(=O)N(CC(=O)NCc2ccccc2)Cc2ccc(C(=O)Nc3cc(-c4ccccc4)ccc3N)cc2)c1
inhibition [25]: 34% | Ratio IC50 [26]: 5.27 | Activity [27]: 6.27% | IC50 [28]: 1.86 µM | IC50 [29]: 12 µM | inhibition [30]: inactive
